Patent US20190169140A1, “IDO1 INHIBITOR AND PREPARATION METHOD AND APPLICATION THEREOF” (SHANDONG LUYE PHARMACEUTICAL CO., LTD., priority 2016, published 2019)

Key:
[1] = Liver microsome stability, mouse; assay type: in vitro ADME, CD-1 mice; conditions: mouse liver microsomes; for CLint scaled: CD-1, read-out: Intrinsic clearance; for Remaining % (60 min): 37° C.
Method: (§1) The purpose of research in the present experiment is assessing phase I metabolic stability of the sample for test in CD-1 mice, SD rats, and human liver microsomes.
(§2) The animals and human liver microsomes used in this test system were purchased from BD Gentest, Xenotech, Corning or BioreclamationIVT, and stored in a refrigerator at −80° C. before use.
(§3) The sample for test and control were incubated together with the microsomes under a condition of 37° C. for 60 minutes, and a cold acetonitrile solution (or other organic solvents) containing an internal standard substance was added at a designated time point to terminate the reaction. After centrifugation, a resultant supernatant was assayed in a semiquantitative manner through liquid chromatography tandem mass spectrometry (LC/MS/MS). Software Analyst (AB Sciex, Framingham, Mass., USA) was used for processing retention time of analyte and internal standard, and achieving chromatogram collection, and chromatogram integration
(§4) An in vitro elimination rate constant ke of the sample was obtained by converting a ratio of the sample to a peak area of the internal standard to remaining percentage, to calculate an in vitro elimination rate and half-life of the sample for test.

[2] = Liver microsome stability, human; assay type: in vitro ADME; conditions: human liver microsomes; for Remaining % (60 min): 37° C.; for CLint scaled: read-out: Intrinsic clearance
Method: as §1, §2, §3, §4

[3] = target: T1, CYP2C19 (Homo sapiens, UniProt P33261); assay: Inhibition on human liver microsome CYP2C19; assay type: in vitro ADME; conditions: human liver microsomes; for IC50: 5-in-1 probe substrate
T1 construct: tissue Corning Inc. or XenoTech, LLC. or other suppliers; host or cells: mixed human liver microsomes
Method: (§5) The research project aimed at evaluating inhibitory ability of a sample for test on human liver microsome cytochrome P450 isozymes (CYP1A2, CYP2C9, CYP2C19, CYP2D6, and CYP3A4) with use of a 5-in-1 probe substrate for CYP isozymes.
(§6) Mixed human liver microsomes (HLM) were purchased from Corning Inc. (Steuben, N.Y., USA) or XenoTech, LLC. (Lenexa, Kans., USA) or other suppliers, and stored in a condition below −70° C. before use.
(§7) Diluted working solutions of the sample for test in serial concentrations were added to an incubation system containing the human liver microsomes, probe substrate, and accessory factors of a cycling system, and a control containing no sample for test but a solvent was taken as a control for enzymatic activity (100%). Concentration of metabolites generated by the probe substrate in the sample was measured with a method of liquid chromatography-tandem mass spectrometry (LC-MS/MS). Nonlinear regression analysis of mean percentage activity vs concentration of the sample for test was carried out using SigmaPlot (V.11). An IC^50 value was calculated through a three-parameter or four-parameter inflection logarithmic equation.

[4] = target: T2, CYP1A2 (Homo sapiens, UniProt P05177); assay: Inhibition on human liver microsome CYP1A2; assay type: in vitro ADME; conditions: human liver microsomes; for IC50: 5-in-1 probe substrate
T2 construct: tissue Corning Inc. or XenoTech, LLC. or other suppliers; host or cells: mixed human liver microsomes
T2 sequence (P05177 1-516): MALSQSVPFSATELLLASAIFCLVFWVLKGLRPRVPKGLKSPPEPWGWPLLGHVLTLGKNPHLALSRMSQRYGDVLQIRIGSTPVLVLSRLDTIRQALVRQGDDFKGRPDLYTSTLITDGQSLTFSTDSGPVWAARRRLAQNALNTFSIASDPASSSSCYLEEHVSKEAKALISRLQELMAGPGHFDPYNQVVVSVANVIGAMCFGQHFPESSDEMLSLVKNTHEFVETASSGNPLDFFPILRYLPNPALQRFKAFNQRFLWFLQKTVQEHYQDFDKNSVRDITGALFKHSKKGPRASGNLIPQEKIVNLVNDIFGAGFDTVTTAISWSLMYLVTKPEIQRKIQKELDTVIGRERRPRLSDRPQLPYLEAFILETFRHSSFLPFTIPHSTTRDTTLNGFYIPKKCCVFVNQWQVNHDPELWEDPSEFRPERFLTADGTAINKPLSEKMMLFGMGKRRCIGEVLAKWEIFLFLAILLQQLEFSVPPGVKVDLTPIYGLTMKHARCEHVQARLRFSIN
Method: as §5, §6, §7

[5] = target: T3, CYP2D6 (Homo sapiens, UniProt P10635); assay: Inhibition on human liver microsome CYP2D6; assay type: in vitro ADME; conditions: human liver microsomes; for IC50: 5-in-1 probe substrate
T3 construct: tissue Corning Inc. or XenoTech, LLC. or other suppliers; host or cells: mixed human liver microsomes
Method: as §5, §6, §7

[6] = target: T4, CYP2C9 (Homo sapiens, UniProt P11712); assay: Inhibition on human liver microsome CYP2C9; assay type: in vitro ADME; conditions: human liver microsomes; for IC50: 5-in-1 probe substrate
T4 construct: tissue Corning Inc. or XenoTech, LLC. or other suppliers; host or cells: mixed human liver microsomes
Method: as §5, §6, §7

[7] = Liver microsome stability, rat; assay type: in vitro ADME, SD rats; conditions: rat liver microsomes; for CLint scaled: SD, read-out: Intrinsic clearance; for Remaining % (60 min): 37° C.
Method: as §1, §2, §3, §4

[8] = tested on: mice colon cancer CT26; conditions: according to document reports; cited from earlier work

T1 sequence (P33261 whole entry): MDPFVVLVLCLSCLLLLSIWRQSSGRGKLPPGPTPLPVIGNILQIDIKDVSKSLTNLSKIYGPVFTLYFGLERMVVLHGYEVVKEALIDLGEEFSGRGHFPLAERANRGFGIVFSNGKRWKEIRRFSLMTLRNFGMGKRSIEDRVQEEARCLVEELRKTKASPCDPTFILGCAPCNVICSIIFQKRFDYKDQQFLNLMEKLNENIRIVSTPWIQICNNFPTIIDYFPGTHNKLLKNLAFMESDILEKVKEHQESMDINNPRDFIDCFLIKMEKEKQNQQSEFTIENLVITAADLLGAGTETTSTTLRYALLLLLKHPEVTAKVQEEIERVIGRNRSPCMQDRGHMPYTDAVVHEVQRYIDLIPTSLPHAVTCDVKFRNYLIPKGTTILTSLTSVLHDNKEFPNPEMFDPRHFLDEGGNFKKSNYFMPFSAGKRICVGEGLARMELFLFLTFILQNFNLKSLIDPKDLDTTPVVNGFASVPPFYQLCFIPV
T3 sequence (P10635 whole entry): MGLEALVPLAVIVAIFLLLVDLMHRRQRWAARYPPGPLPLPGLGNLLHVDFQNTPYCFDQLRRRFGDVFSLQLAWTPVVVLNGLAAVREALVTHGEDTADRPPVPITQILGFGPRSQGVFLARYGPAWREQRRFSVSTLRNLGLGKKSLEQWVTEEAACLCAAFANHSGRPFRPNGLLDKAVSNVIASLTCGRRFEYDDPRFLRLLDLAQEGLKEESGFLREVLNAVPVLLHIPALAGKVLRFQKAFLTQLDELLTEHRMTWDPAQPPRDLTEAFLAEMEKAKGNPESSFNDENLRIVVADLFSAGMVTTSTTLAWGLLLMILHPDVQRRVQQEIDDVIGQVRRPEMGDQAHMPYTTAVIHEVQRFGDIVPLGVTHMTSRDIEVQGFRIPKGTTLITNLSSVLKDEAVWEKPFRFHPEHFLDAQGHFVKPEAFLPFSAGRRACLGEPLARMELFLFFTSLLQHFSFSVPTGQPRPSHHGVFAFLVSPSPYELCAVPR
T4 sequence (P11712 whole entry): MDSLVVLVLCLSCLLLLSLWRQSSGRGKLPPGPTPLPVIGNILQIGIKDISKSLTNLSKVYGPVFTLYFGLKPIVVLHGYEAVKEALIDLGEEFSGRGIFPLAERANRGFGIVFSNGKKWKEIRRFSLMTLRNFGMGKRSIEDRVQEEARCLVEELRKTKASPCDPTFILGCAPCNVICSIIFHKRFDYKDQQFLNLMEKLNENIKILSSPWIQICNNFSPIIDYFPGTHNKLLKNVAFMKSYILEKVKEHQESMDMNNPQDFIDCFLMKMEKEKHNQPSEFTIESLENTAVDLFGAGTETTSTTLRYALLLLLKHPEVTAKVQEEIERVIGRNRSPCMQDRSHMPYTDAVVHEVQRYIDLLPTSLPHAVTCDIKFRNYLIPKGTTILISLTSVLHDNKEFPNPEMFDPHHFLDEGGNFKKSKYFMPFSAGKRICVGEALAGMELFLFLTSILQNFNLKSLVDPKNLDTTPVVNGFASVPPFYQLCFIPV

Compound | CLint scaled [1] | metabolic stability in words [1] | Remaining % (60 min) [1] | metabolic stability in words [2] | Remaining % (60 min) [2] | CLint scaled [2] | inhibiting effect on CYP2C19 in words [3] | IC50 [3] | IC50 [4] | IC50 [5] | IC50 [6] | CLint scaled [7] | metabolic stability in words [7] | Remaining % (60 min) [7] | inhibiting effect on CYP1A2 in words [4] | inhibiting effect on CYP2D6 in words [5] | inhibiting effect on CYP2C9 in words [6] | growth of tumors in mice colon cancer CT26 model [8]
CC(=O)NCCSc1nonc1/C(=N/O)Nc1ccc(F)c(Br)c1 [Compound 0227] | 275 mL/min/kg | metabolized quickly | 11.0% | metabolized in a moderate manner | 56.9% | 15.3 mL/min/kg | intermediate degree | 3.61 µM | 13 µM | 26.1 µM | 15.9 µM | 91.9 mL/min/kg | metabolized quickly | 21.6% | – | – | – | –
NC(=O)NCCSc1nonc1/C(=N/O)Nc1ccc(F)c(Br)c1 [Compound 0231] | 134 mL/min/kg | metabolized quickly | 35.8% | metabolized in a relatively steady manner | 81.6% | < 8.6 mL/min/kg | relatively weak effect | 36.4 µM | > 50 µM | > 50 µM | > 50 µM | 23.7 mL/min/kg | metabolized in a relatively steady manner | 64.8% | relatively weak effect | relatively weak effect | relatively weak effect | –
NS(=O)(=O)NCCNc1nonc1C(=NO)Nc1ccc(F)c(Br)c1 [Compound 360, INCB024360, reference compound] | – | – | – | – | – | – | – | – | – | – | – | – | – | – | – | – | – | effectively inhibit growth of tumors
